Assay: recombinant barcode read abundance after kanamycin selection (control-corrected) (log10(CPM+1)); higher = more efficient recombination; sequences stand for … in AGTGCAGAGAAAATCGGCCAGTTTTCTCTGCCTGCAGTCCGCATGCCGT…AGATTTATGCAGCGGACTGCCTTTCTCCCAAAGTGATAAACCGGACAGTATCATGGACCGGTTTTCCCGGTAATCCGTATTTGCAAGGTTGGTTTCACT; site = the 11-nt target
Outline: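 Two replicates per condition were plated: chloramphenicol/ampicillin LB agar for the control, and chloramphenicol/ampicillin/kanamycin with 0.1 mM IPTG for selection. The pooled E. coli screen behind them paired targets with IS621 bridge RNA target-binding loops. Recombination efficiency is expressed from averaged, control-corrected barcode counts per million at recombinant junctions, as log10(CPM+1).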
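Further: IS621 recombinase and bridge RNA in Escherichia coli cells.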

Sequence	recombinant barcode read abundance (log10)
CTGGCGTCTTGGGTTCTAACCTGTTGCCT (site CTGGAGTCTAG)	0.263
CTGGCGTCTTGGGTTCTAACCTGTTGCCT (site CTGGCGTCTAG)	1.1
CTGGCGTCTTGGGTTCTAACCTGTTGCCT (site CTGGGGTCTAG)	0.0321
CTGGCGTCTTGGGTTCTAACCTGTTGCCT (site CTGGTGTCTAG)	0.0782
CTGGGAACTTGGGTTCTAACCTGTTGCAG (site CTCGGAACTAT)	0.149
CTGGGAACTTGGGTTCTAACCTGTTGCAG (site CTGGGAACTCT)	0.836
CTGGGGTCTTGGGTTCTAACCTGTTGCCT (site CTGGAGTCTAG)	0.858
CTGGGGTCTTGGGTTCTAACCTGTTGCCT (site CTGGCGTCTAG)	0.36
CTGGGGTCTTGGGTTCTAACCTGTTGCCT (site CTGGGGTCTAG)	2.45
CTGGGGTCTTGGGTTCTAACCTGTTGCCT (site CTGGTGTCTAG)	0.173
CTGGTGTCTTGGGTTCTAACCTGTTGCCA (site CTGATGTCTTG)	0.0384
CTGGTGTCTTGGGTTCTAACCTGTTGCCA (site CTGCTGTCTTG)	0.0405
CTGGTGTCTTGGGTTCTAACCTGTTGCCA (site CTGGTGTCTTG)	1.12
CTGGTGTCTTGGGTTCTAACCTGTTGCCA (site CTGTTGTCTTG)	0.434
CTGTACTCTTGGGTTCTAACCTGTTGCCT (site CTGCACTCTTG)	0.126
CTGTACTCTTGGGTTCTAACCTGTTGCCT (site CTGTACTCTAG)	1.3
CTGTGAGCTTGGGTTCTAACCTGTTGCAG (site AACAATACTAG)	0.107
CTGTGAGCTTGGGTTCTAACCTGTTGCAG (site CTGTGAGCTCT)	1.47
CTGTGCACTTGGGTTCTAACCTGTTGCCG (site ATGTGCACTCT)	0.053
CTGTGCACTTGGGTTCTAACCTGTTGCCG (site CTGTGCACTCG)	0.197
CTGTGTCCTTGGGTTCTAACCTGTTGCGG (site CTGTGTCCTCC)	1.84
CTGTGTCCTTGGGTTCTAACCTGTTGCGG (site TCAGCCTCTAG)	0.214

Sequence	recombinant barcode read abundance (log10)
CTTAACACTTGGGTTCTAACCTGTTGCCG (site CTTAACACTCG)	0.683
CTTAACACTTGGGTTCTAACCTGTTGCCG (site TCATGACCTAT)	0.0383
CTTACGACTTGGGTTCTAACCTGTTGCCT (site CTTACGACTAG)	0.695
CTTACGACTTGGGTTCTAACCTGTTGCCT (site GTTACAACTAG)	0.355
CTTACTACTTGGGTTCTAACCTGTTGCCA (site CTTACTACTTG)	0.0598
CTTACTACTTGGGTTCTAACCTGTTGCCA (site TCCGGCGCTCC)	0.0182
CTTACTGCTTGGGTTCTAACCTGTTGCCT (site CTTACAGCTAG)	0.775
CTTACTGCTTGGGTTCTAACCTGTTGCCT (site CTTACCGCTAG)	0.291
CTTACTGCTTGGGTTCTAACCTGTTGCCT (site CTTACGGCTAG)	0.295
CTTACTGCTTGGGTTCTAACCTGTTGCCT (site CTTACTGCTAG)	0.183
CTTAGGGCTTGGGTTCTAACCTGTTGCCT (site CTTAGGGCTAG)	0.419
CTTAGGGCTTGGGTTCTAACCTGTTGCCT (site CTTTGTGCTAG)	0.012
CTTAGGGCTTGGGTTCTAACCTGTTGCGG (site CTAAGGGCTCC)	2.14
CTTAGGGCTTGGGTTCTAACCTGTTGCGG (site CTTAGGGCTCC)	3.02
CTTCAAGCTTGGGTTCTAACCTGTTGCCT (site CTACAAGCTAG)	1.17
CTTCAAGCTTGGGTTCTAACCTGTTGCCT (site CTCCAAGCTAG)	0.257
CTTCAAGCTTGGGTTCTAACCTGTTGCCT (site CTGCAAGCTAG)	0.197
CTTCAAGCTTGGGTTCTAACCTGTTGCCT (site CTTCAAGCTAG)	0.983
CTTCGAACTTGGGTTCTAACCTGTTGCAT (site ACATACCCTCA)	0.609
CTTCGAACTTGGGTTCTAACCTGTTGCAT (site CTTCGAACTAT)	0.407
CTTCGACCTTGGGTTCTAACCTGTTGCAT (site CTTCGACCTAT)	2.04
CTTCGACCTTGGGTTCTAACCTGTTGCAT (site CTTGGACCTCT)	0.0729

Sequence	recombinant barcode read abundance (log10)
CTTCGAGCTTGGGTTCTAACCTGTTGCAG (site CTTCGAGCTCA)	0.172
CTTCGAGCTTGGGTTCTAACCTGTTGCAG (site CTTCGAGCTCC)	0.288
CTTCGAGCTTGGGTTCTAACCTGTTGCAG (site CTTCGAGCTCG)	0.168
CTTCGAGCTTGGGTTCTAACCTGTTGCAG (site CTTCGAGCTCT)	1.35
CTTCGCCCTTGGGTTCTAACCTGTTGCTT (site ACAGTGGCTCC)	0.0481
CTTCGCCCTTGGGTTCTAACCTGTTGCTT (site CTTCGCCCTAA)	0.109
CTTCGGACTTGGGTTCTAACCTGTTGCAA (site CTTCGGACTTT)	1.62
CTTCGGACTTGGGTTCTAACCTGTTGCAA (site CTTCGGGCTTT)	0.223
CTTCGGGCTTGGGTTCTAACCTGTTGCAG (site CATCGGGCTCT)	1.25
CTTCGGGCTTGGGTTCTAACCTGTTGCAG (site CCTCGGGCTCT)	1.3
CTTCGGGCTTGGGTTCTAACCTGTTGCAG (site CGTCGGGCTCT)	0.0132
CTTCGGGCTTGGGTTCTAACCTGTTGCAG (site CTTCGGGCTCT)	1.96
CTTCGTCCTTGGGTTCTAACCTGTTGCAT (site CTTCGTCCTAA)	0.0066
CTTCGTCCTTGGGTTCTAACCTGTTGCAT (site CTTCGTCCTAC)	0.133
CTTCGTCCTTGGGTTCTAACCTGTTGCAT (site CTTCGTCCTAG)	0.139
CTTCGTCCTTGGGTTCTAACCTGTTGCAT (site CTTCGTCCTAT)	0.658
CTTGAATCTTGGGTTCTAACCTGTTGCCT (site CTTAAATCTAG)	0.117
CTTGAATCTTGGGTTCTAACCTGTTGCCT (site CTTCAATCTAG)	0.0867
CTTGAATCTTGGGTTCTAACCTGTTGCCT (site CTTGAATCTAG)	0.379
CTTGAATCTTGGGTTCTAACCTGTTGCCT (site CTTTAATCTAG)	0.337
CTTGAGACTTGGGTTCTAACCTGTTGCCT (site CTTCAGGCTAG)	0.256
CTTGAGACTTGGGTTCTAACCTGTTGCCT (site CTTGAGACTAG)	2.02

Sequence	recombinant barcode read abundance (log10)
CTTGGACCTTGGGTTCTAACCTGTTGCAG (site CTTCGACCTAT)	0.00985
CTTGGACCTTGGGTTCTAACCTGTTGCAG (site CTTGGACCTCT)	2.55
CTTGGACCTTGGGTTCTAACCTGTTGCCT (site CTTGGAACTAG)	0.222
CTTGGACCTTGGGTTCTAACCTGTTGCCT (site CTTGGACCTAG)	1.74
CTTGGACCTTGGGTTCTAACCTGTTGCCT (site CTTGGAGCTAG)	0.0408
CTTGGACCTTGGGTTCTAACCTGTTGCCT (site CTTGGATCTAG)	0.113
CTTGGTTCTTGGGTTCTAACCTGTTGCCT (site CTTGGGTCTAG)	0.108
CTTGGTTCTTGGGTTCTAACCTGTTGCCT (site CTTGGTTCTAG)	0.33
CTTTAAGCTTGGGTTCTAACCTGTTGCTA (site ACCGTTCCTAG)	0.0964
CTTTAAGCTTGGGTTCTAACCTGTTGCTA (site CTTTAAGCTTA)	0.195
CTTTAATCTTGGGTTCTAACCTGTTGCCT (site CTTAAATCTAG)	0.349
CTTTAATCTTGGGTTCTAACCTGTTGCCT (site CTTCAATCTAG)	0.158
CTTTAATCTTGGGTTCTAACCTGTTGCCT (site CTTGAATCTAG)	0.0679
CTTTAATCTTGGGTTCTAACCTGTTGCCT (site CTTTAATCTAG)	0.165
CTTTAGACTTGGGTTCTAACCTGTTGCAT (site CTCTAGACTAC)	0.0162
CTTTAGACTTGGGTTCTAACCTGTTGCAT (site CTTTAGACTAT)	0.926
CTTTCCTCTTGGGTTCTAACCTGTTGCCT (site CATTCCTCTAG)	0.153
CTTTCCTCTTGGGTTCTAACCTGTTGCCT (site CCTTCCTCTAG)	0.0332
CTTTCCTCTTGGGTTCTAACCTGTTGCCT (site CGTTCCTCTAG)	0.0618
CTTTCCTCTTGGGTTCTAACCTGTTGCCT (site CTTTCCTCTAG)	0.831

From the supplement of paper PMC11208160
